# Results taken from PubChem BioAssay AID1963861 (Molecular Pharmacology Branch, DTP, NCI, 2024).
# Test system: 885724-159-R-J1-PDC KRAS PDC multicell spheroid viability
# Experiment: Anticancer human tumor 885724-159-R-J1-PDC patient-derived pancreatic adenocarcinoma cell line growth inhibition [KRAS2]
# Conditions: for IC50: curve of first compound; for viability, T/C: stronger effect = lower value
# From the text: Multicellular complex tumor spheroid response to RAS pathway inhibitors in combination with a targeted agents in patient-derived cell lines with oncogenic KRAS variants from multiple cancer types
# A high-throughput screen of multi-cell type tumor spheroids was designed to identify active combinations of targeted small molecules and KRAS pathway inhibitors. Complex spheroids include a stromal component modeled by human endothelial cells (HUVEC) and fibroblasts modeled by human mesenchymal stem cells (MSCs). The concentration ranges selected for each drug and investigational agent were based upon clinically achievable concentrations if the clinical Cmax of the agent was known.
# Compounds. The drugs and investigational agents: BI-3406 (NSC825286), BAY-293 (NSC824723), batoprotafib (TNO155; NSC825523), sotorasib (AMG 510; NSC818433), MRTX1257 (NSC819558), elimusertib (BAY 1895344; NSC800525), molibresib (GSK525762; NSC774829), temuterkib (LY3214996; NSC803410), venetoclax (NSC766270), alisertib (NSC759677), olaparib (NSC753686), talazoparib (NSC767125), erdafitinib (NSC781556), ipatasertib (NSC767898), cabozantinib (NSC761068), nintedanib (NSC756659), abemaciclib (NSC768073), docetaxel (NSC628503), trametinib (NSC758246), and sapanisertib (NSC764658) were obtained from the National Cancer Institute (NCI) Developmental Therapeutics Program Chemical Repository. The FDA-approved anticancer drug set is available from the Developmental Therapeutics Program. […] The stock solutions were prepared in dimethyl sulfoxide (DMSO, Sigma-Aldrich, St. Louis, MO, cat. D2650) at 800-fold the tested concentration and stored at -70 degrees C prior to their use. All drugs and investigational agents were tested over a range starting from a high concentration at or near the clinical Cmax and decreasing in half-log increments. If the clinical Cmax for an agent had not been determined, the highest concentration tested was 10 microM.
# Cell Culture. All cells were maintained in an incubator at 37 degrees C and 5% CO2 with 95% humidity. The PDC lines were cultured according to standard operating procedures established by the NCI PDMR (https://pdmr.cancer.gov/sops/default.htm). Briefly, all PDCs were thawed and cultured in Matrigel-coated flasks prepared with a working solution of 1X Ham's F-12 nutrient mix, without supplementation (Invitrogen, Waltham, MA, cat. 11765054), 100 U/mL penicillin-streptomycin (Invitrogen, cat. 15140122), and 2.5% Matrigel (Corning Inc., Corning, NY, cat. 354248) for the first three passages. All PDCs were cultured in complete DMEM/F-12 media containing advanced DMEM/F-12 (Invitrogen, cat. 12634028), 4.9% defined fetal bovine serum, heat inactivated (HyClone Laboratories Inc., Logan, UT, cat. SH30070.03HI), 389 ng/mL hydrocortisone (Sigma-Aldrich, cat. H4001), 9.7 ng/mL human EGF recombinant protein (Invitrogen, cat. PHG0313), 23.4 microg/mL adenine (Sigma-Aldrich, cat. A2786), 97.3 U/mL penicillin-streptomycin (Invitrogen, cat. 15140122), 1.9 mM L-glutamine (Invitrogen, cat. 25030081), and 9.7 microM Y-27632 dihydrochloride (Tocris Bioscience, Bristol, United Kingdom, cat. 1254). The PDCs were cultured in complete DMEM/F12 media without 9.7 microM Y-27632 dihydrochloride for at least two passages prior to the screen. The established cell line HOP-62 was cultured in RPMI 1640 medium, HEPES (Invitrogen, cat. 22400105) with 10% defined fetal bovine serum (HyClone Laboratories Inc., cat. SH30070.03) and 2 mM L-glutamine (Invitrogen, cat. 25030081). The pooled donor HUVEC were cultured in endothelial cell growth medium 2 (PromoCell, Heidelberg, Germany, cat. C-22011) and the hMSC were cultured in mesenchymal stem cell growth medium 2 (PromoCell, cat. C-28009). For all experiments, HUVEC and hMSC were used at passages </=5, while the malignant cell lines were used at passages </=15. […]
# [1] = second compound 0.1 µM, first compound 0.000316 µM
# [2] = second compound 0.1 µM, first compound 0.001 µM
# [3] = second compound 0.1 µM, first compound 0.00316 µM
# [4] = second compound 0.1 µM, first compound 0.01 µM
# [5] = second compound 0.1 µM, first compound 0.0316 µM
# [6] = second compound 0.1 µM, first compound 0.1 µM
# [7] = second compound 0.316 µM, first compound 0.000316 µM
# [8] = second compound 0.316 µM, first compound 0.001 µM
# [9] = second compound 0.316 µM, first compound 0.00316 µM
# [10] = second compound 0.316 µM, first compound 0.01 µM
# [11] = second compound 0.316 µM, first compound 0.0316 µM
# [12] = second compound 0.316 µM, first compound 0.1 µM
# [13] = second compound 1 µM, first compound 0.000316 µM
# [14] = second compound 1 µM, first compound 0.001 µM
# [15] = second compound 1 µM, first compound 0.00316 µM
# [16] = second compound 1 µM, first compound 0.01 µM
# [17] = second compound 1 µM, first compound 0.0316 µM
# [18] = second compound 1 µM, first compound 0.1 µM
# [19] = second compound 3.16 µM, first compound 0.000316 µM
# [20] = second compound 3.16 µM, first compound 0.001 µM
# [21] = second compound 3.16 µM, first compound 0.00316 µM
# [22] = second compound 3.16 µM, first compound 0.01 µM
# [23] = second compound 3.16 µM, first compound 0.0316 µM
# [24] = second compound 3.16 µM, first compound 0.1 µM
# [25] = second compound 10 µM, first compound 0.000316 µM
# [26] = second compound 10 µM, first compound 0.001 µM
# [27] = second compound 10 µM, first compound 0.00316 µM
# [28] = second compound 10 µM, first compound 0.01 µM
# [29] = second compound 10 µM, first compound 0.0316 µM
# [30] = second compound 10 µM, first compound 0.1 µM
# [31] = second compound 0.1 µM, first compound 0.316 µM
# [32] = second compound 0.1 µM, first compound 1 µM
# [33] = second compound 0.1 µM, first compound 3.16 µM
# [34] = second compound 0.1 µM, first compound 10 µM
# [35] = second compound 0.316 µM, first compound 0.316 µM
# [36] = second compound 0.316 µM, first compound 1 µM
# [37] = second compound 0.316 µM, first compound 3.16 µM
# [38] = second compound 0.316 µM, first compound 10 µM
# [39] = second compound 1 µM, first compound 0.316 µM
# [40] = second compound 1 µM, first compound 1 µM
# [41] = second compound 1 µM, first compound 3.16 µM
# [42] = second compound 1 µM, first compound 10 µM
# [43] = second compound 3.16 µM, first compound 0.316 µM
# [44] = second compound 3.16 µM, first compound 1 µM
# [45] = second compound 3.16 µM, first compound 3.16 µM
# [46] = second compound 3.16 µM, first compound 10 µM
# [47] = second compound 10 µM, first compound 0.316 µM
# [48] = second compound 10 µM, first compound 1 µM
# [49] = second compound 10 µM, first compound 3.16 µM
# [50] = second compound 10 µM, first compound 10 µM
# 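Further: spheroids exposed to agents for 7 days before readout.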
SMILES,IC50 (second compound 0.1 µM),IC50 (second compound 0.316 µM),IC50 (second compound 1 µM),IC50 (second compound 3.16 µM),IC50 (second compound 10 µM),"viability, T/C [1]","viability, T/C [2]","viability, T/C [3]","viability, T/C [4]","viability, T/C [5]","viability, T/C [6]","viability, T/C [7]","viability, T/C [11]","viability, T/C [12]","viability, T/C [17]","viability, T/C [18]","viability, T/C [23]","viability, T/C [24]","viability, T/C [29]","viability, T/C [30]",further results
CC(C)n1nc(-c2ccc3oc(N)nc3c2)c2c(N)ncnc21 + C=CC(=O)N1CCN(c2nc(=O)n(-c3c(C)ccnc3C(C)C)c3nc(-c4c(O)cccc4F)c(F)cc23)C(C)C1,37 nM,38 nM,24 nM,13.7 nM,3.9 nM,97.8%,82.4%,74.6%,61%,50.5%,42.7%,98.8%,51.2%,41.6%,47.9%,40.2%,43.7%,40.4%,40.1%,32.9%,"viability, T/C [8]: 82.9%; viability, T/C [9]: 72.2%; viability, T/C [10]: 63.9%; viability, T/C [13]: 98.4%; viability, T/C [14]: 77.6%; viability, T/C [15]: 68.8%; viability, T/C [16]: 58.3%; viability, T/C [19]: 112%; viability, T/C [20]: 77.4%; viability, T/C [21]: 68.3%; viability, T/C [22]: 51.5%; viability, T/C [25]: 74.7%; viability, T/C [26]: 59%; viability, T/C [27]: 49.9%; viability, T/C [28]: 46.1%"
CC1(C)CCC(CN2CCN(c3ccc(C(=O)NS(=O)(=O)c4ccc(NCC5CCOCC5)c([N+](=O)[O-])c4)c(Oc4cnc5[nH]ccc5c4)c3)CC2)=C(c2ccc(Cl)cc2)C1 + C=CC(=O)N1CCN(c2nc(=O)n(-c3c(C)ccnc3C(C)C)c3nc(-c4c(O)cccc4F)c(F)cc23)C(C)C1,7090 nM,7140 nM,5360 nM,9700 nM,5480 nM,–,–,–,–,111%,118%,–,117%,114%,122%,117%,109%,120%,91.1%,68.7%,"viability, T/C [31]: 114%; viability, T/C [32]: 108%; viability, T/C [33]: 91.2%; viability, T/C [34]: 32.3%; viability, T/C [35]: 111%; viability, T/C [36]: 114%; viability, T/C [37]: 89.3%; viability, T/C [38]: 33.8%; viability, T/C [39]: 118%; viability, T/C [40]: 112%; viability, T/C [41]: 72.8%; viability, T/C [42]: 23.1%; viability, T/C [43]: 113%; viability, T/C [44]: 114%; viability, T/C [45]: 80.8%; viability, T/C [46]: 49.2%; viability, T/C [47]: 76.9%; viability, T/C [48]: 77.8%; viability, T/C [49]: 65.3%; viability, T/C [50]: 33%"
COc1cc2nccc(Oc3ccc(NC(=O)C4(C(=O)Nc5ccc(F)cc5)CC4)cc3)c2cc1OC + C=CC(=O)N1CCN(c2nc(=O)n(-c3c(C)ccnc3C(C)C)c3nc(-c4c(O)cccc4F)c(F)cc23)C(C)C1,> 10000 nM,> 10000 nM,> 10000 nM,> 10000 nM,2400 nM,–,–,–,–,123%,125%,–,124%,117%,118%,122%,117%,122%,75.6%,72.2%,"viability, T/C [31]: 142%; viability, T/C [32]: 113%; viability, T/C [33]: 81.4%; viability, T/C [34]: 75.6%; viability, T/C [35]: 117%; viability, T/C [36]: 126%; viability, T/C [37]: 90.4%; viability, T/C [38]: 77.7%; viability, T/C [39]: 114%; viability, T/C [40]: 126%; viability, T/C [41]: 86.4%; viability, T/C [42]: 77.6%; viability, T/C [43]: 123%; viability, T/C [44]: 106%; viability, T/C [45]: 78.6%; viability, T/C [46]: 77.7%; viability, T/C [47]: 62.3%; viability, T/C [48]: 86.2%; viability, T/C [49]: 35.8%; viability, T/C [50]: 48.9%"
Cn1ncnc1[C@H]1c2n[nH]c(=O)c3cc(F)cc(c23)N[C@@H]1c1ccc(F)cc1 + C=CC(=O)N1CCN(c2nc(=O)n(-c3c(C)ccnc3C(C)C)c3nc(-c4c(O)cccc4F)c(F)cc23)C(C)C1,> 100 nM,> 100 nM,> 100 nM,> 100 nM,> 100 nM,105%,107%,103%,110%,111%,92%,118%,108%,94%,104%,96.8%,108%,105%,82.2%,78.4%,"viability, T/C [8]: 115%; viability, T/C [9]: 113%; viability, T/C [10]: 113%; viability, T/C [13]: 111%; viability, T/C [14]: 106%; viability, T/C [15]: 117%; viability, T/C [16]: 107%; viability, T/C [19]: 106%; viability, T/C [20]: 108%; viability, T/C [21]: 106%; viability, T/C [22]: 105%; viability, T/C [25]: 89.3%; viability, T/C [26]: 97.4%; viability, T/C [27]: 93%; viability, T/C [28]: 86%"
